What was measured:
[1] = Drug metabolism in mouse liver microsomes after 20 mins; format: ADME, Microsome; settings: read-out: Drug metabolism
[2] = Drug metabolism in human liver microsomes after 20 mins; format: ADME, Microsome; settings: read-out: Drug metabolism
[3] = target: 11-beta-hydroxysteroid dehydrogenase 1 (Mus musculus, UniProt P50172); test: Inhibition of mouse 11beta-HSD1
[4] = Chemical stability of the compound under neutral condition; format: physicochemical
[5] = Metabolic stability in plasma (unknown origin) assessed as compound degradation; format: ADME, cell-free
[6] = Chemical stability of the compound under acidic condition; format: physicochemical
[7] = target: 11-beta-hydroxysteroid dehydrogenase 1 (Rattus norvegicus, UniProt P16232); test: Inhibition of rat 11beta-HSD1
11-beta-hydroxysteroid dehydrogenase 1 (Rattus norvegicus, UniProt P16232), sequence (P16232 whole entry): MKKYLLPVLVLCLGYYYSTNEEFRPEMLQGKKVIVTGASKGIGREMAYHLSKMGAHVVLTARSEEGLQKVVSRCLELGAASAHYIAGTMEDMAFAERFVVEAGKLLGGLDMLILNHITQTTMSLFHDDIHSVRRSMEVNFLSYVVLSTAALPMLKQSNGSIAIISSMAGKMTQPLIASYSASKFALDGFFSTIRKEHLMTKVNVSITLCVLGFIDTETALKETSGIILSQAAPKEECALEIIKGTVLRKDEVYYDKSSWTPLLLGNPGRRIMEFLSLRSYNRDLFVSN

[8] = target: 11-beta-hydroxysteroid dehydrogenase 1 (Homo sapiens, UniProt P28845); test: Inhibition of human 11beta-HSD1
11-beta-hydroxysteroid dehydrogenase 1 (Homo sapiens, UniProt P28845), sequence (P28845 whole entry): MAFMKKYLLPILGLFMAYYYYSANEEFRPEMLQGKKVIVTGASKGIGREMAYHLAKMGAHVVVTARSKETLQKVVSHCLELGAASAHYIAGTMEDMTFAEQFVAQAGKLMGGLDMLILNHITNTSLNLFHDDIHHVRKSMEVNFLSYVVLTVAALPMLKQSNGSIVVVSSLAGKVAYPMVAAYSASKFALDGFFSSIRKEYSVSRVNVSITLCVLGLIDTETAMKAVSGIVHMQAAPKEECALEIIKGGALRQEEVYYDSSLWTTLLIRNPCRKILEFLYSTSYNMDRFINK

11-beta-hydroxysteroid dehydrogenase 1 (Mus musculus, UniProt P50172), sequence (P50172 whole entry): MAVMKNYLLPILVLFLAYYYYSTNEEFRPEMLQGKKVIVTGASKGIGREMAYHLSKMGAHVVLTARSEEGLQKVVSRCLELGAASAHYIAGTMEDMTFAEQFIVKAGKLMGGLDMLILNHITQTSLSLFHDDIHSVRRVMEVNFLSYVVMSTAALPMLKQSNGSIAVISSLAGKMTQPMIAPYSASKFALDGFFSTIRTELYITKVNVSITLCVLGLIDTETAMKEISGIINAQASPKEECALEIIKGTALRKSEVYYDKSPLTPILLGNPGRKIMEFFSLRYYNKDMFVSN

Compound	metabolised at 20 min [1] [%]	metabolised at 20 min [2] [%]	IC50 [3] [nM]	other results
O=S1(=O)N=C(N[C@@H](CCCO)c2ccccc2)O[C@H]2CCCC[C@H]21	78	89	294	–
CC1(C)OC(NC2CCCCC2)=NS(=O)(=O)C1(C)C	9	5	865	–
CC1(C)OC(NC2CCCCC2)=NS(=O)(=O)C12CC2	–	–	1620	–
O=S1(=O)N=C(NC2CCCCC2)OC2(CCC2)C12CC2	–	–	813	–
CCC1OC(NC2CCCCC2)=NS(=O)(=O)C12CC2 (centres undefined)	–	–	2510	–
C[C@H](NC1=NS(=O)(=O)C(C)(C)C(C)(C)O1)c1ccccc1	–	–	286	–
C[C@H](NC1=NS(=O)(=O)C(C)(C)C(C)(C)O1)c1ccccc1Cl	–	–	29	–
CC1(C)OC(N[C@@H](CCO)c2ccccc2)=NS(=O)(=O)C1(C)C	11	4	232	–
CC1(C)OC(N[C@@H](CCO)c2ccccc2Cl)=NS(=O)(=O)C1(C)C	52	25	26	–
CC1(C)OC(N[C@@H](CCO)c2cccc(C#N)c2)=NS(=O)(=O)C1(C)C	–	–	110	–
CC1(C)OC(N[C@@H](CCO)c2ccc(F)cc2)=NS(=O)(=O)C1(C)C	9	2	199	–
CC(C)(O)C[C@H](NC1=NS(=O)(=O)C(C)(C)C(C)(C)O1)c1ccccc1Cl	–	–	452	–
O=S1(=O)N=C(NC2CCCCC2)O[C@H]2CCCC[C@H]21	–	–	–	Stability [4]: Stable; Stability [5]: Stable; Stability [6]: Stable; IC50 [7]: 246 nM
O=S1(=O)NC(=NC2CCCCC2)O[C@@H]2CCCC[C@H]21	–	–	–	IC50 [7]: 1140 nM
O=S1(=O)NC(=NCc2ccccc2)O[C@H]2CCCC[C@H]21	–	–	786	–
O=S1(=O)NC(=NC23CCC(CC2)CC3)O[C@H]2CCCC[C@H]21	87	94	275	–
O=S1(=O)NC(=NC23CC4CC(CC(C4)C2)C3)O[C@H]2CCCC[C@H]21	98	91	40	–
O=S1(=O)NC(=NC23CC4CC(CC2C4)C3)O[C@H]2CCCC[C@H]21 (mixture of isomers)	65	83	9	–

Compound	metabolised at 20 min [1] [%]	metabolised at 20 min [2] [%]	IC50 [3] [nM]	other results
CC(C)(NC1=NS(=O)(=O)[C@@H]2CCCC[C@@H]2O1)c1ccccc1 (mixture of isomers)	–	–	444	–
O=S1(=O)NC(=N[C@@H](CO)c2ccccc2)O[C@H]2CCCC[C@H]21 (mixture of isomers)	–	–	152	–
O=S1(=O)N=C(N[C@@H](CCO)c2ccccc2)O[C@H]2CCCC[C@H]21 (mixture of isomers)	41	77	16	–
NC(=O)C[C@H](NC1=NS(=O)(=O)[C@@H]2CCCC[C@@H]2O1)c1ccccc1 (mixture of isomers)	35	47	–	–
O=S1(=O)N=C(NC23CCCC2CCC3)O[C@H]2CCCC[C@H]21 (mixture of isomers)	–	–	47	–
O=S1(=O)N=C(NC23CCC(F)(CC2)CC3)O[C@H]2CCCC[C@H]21 (mixture of isomers)	–	–	454	–
O=S1(=O)N=C(NC23CCC(O)(CC2)CC3)O[C@H]2CCCC[C@H]21 (mixture of isomers)	20	12	695	–
O=S1(=O)NC(=NC23CC4CC(CC(O)(C4)C2)C3)O[C@H]2CCCC[C@H]21 (mixture of isomers)	–	–	400	–
O=S1(=O)NC(=NCC23CC4CC(CC(C4)C2)C3)O[C@H]2CCCC[C@H]21 (mixture of isomers)	–	–	76	–
O=S1(=O)N=C(NC2CCCCC2)O[C@H]2CCCC[C@H]21 (racemic)	19	18	–	–
O=S1(=O)N=C(NC2CCCCC2)O[C@H]2CCNC[C@H]21 (racemic)	–	–	–	IC50 [8]: > 2250 nM
O=S1(=O)NC(=NC2CCCCC2)O[C@@H]2CCNC[C@H]21 (racemic)	–	–	–	IC50 [8]: > 2250 nM
CN1CC[C@@H]2OC(=NC3CCCCC3)NS(=O)(=O)[C@@H]2C1 (racemic)	–	–	–	IC50 [8]: > 2250 nM
O=S1(=O)N=C(NC2CCCCCC2)O[C@H]2CCCC[C@H]21 (racemic)	54	45	87	–
O=S1(=O)N=C(NC2CCCCCCC2)O[C@H]2CCCC[C@H]21 (racemic)	84	79	31	–
CC1(C)CCC(N=C2NS(=O)(=O)[C@@H]3CCCC[C@@H]3O2)CC1 (racemic)	55	55	455	–
CC1(C)CC(NC2=NS(=O)(=O)[C@@H]3CCCC[C@@H]3O2)CC(C)(C)C1 (racemic)	97	93	57	–
O=S1(=O)NC(=NCC2CCCCC2)O[C@H]2CCCC[C@H]21 (racemic)	–	–	729	–

Source: ChEMBL document CHEMBL2407060, “1,1-Dioxo-5,6-dihydro-[4,1,2]oxathiazines, a novel class of 11ß-HSD1 inhibitors for the treatment of diabetes” (Bioorg Med Chem Lett, 2013)
